According to US20050004011A1, “Compositions and methods for treating bacterial infections with protein-dalbavancin complexes” (priority 2002, published 2005):

How the values were obtained:
[1] = Stability of dalbavancin in plasma; format: in vitro ADME, human
Protocol: A quality control standard of 1.5 μg/ml was prepared by spiking human plasma with an appropriate volume of a 50 μg/ml solution.

Group B streptococcus = assay: Dalbavancin MIC of baseline isolates; format: cell-based
human albumin = human albumin (Homo sapiens, UniProt P02768); assay: Protein binding by isothermal titration microcalorimetry
Protocol: Integrated heat effects, after correction for heats of dilution, were analyzed by non-linear regression using a simple single-site binding model with the standard Microcal ORIGIN software package. Raw data (μcal/sec) for each injection were integrated to give the total heat effect per addition, then divided by amount of injectant to give kcal/mole of injectant. The same integration was applied for control dilution effects, and this was subtracted from the actual titration data. This provided a differential of the binding curve in which the extent of binding is proportional to the total heat liberated (or absorbed). This was then analyzed by non-linear regression methods in terms of various standard binding models.

[2] = ESI-MS of multimers in solution
Protocol: Experiments were performed using an Applied Biosystem API III+mass spectrometer equipped with a TurboIonSpray source, a Triple Quadrupole analyzer, operating in positive ion mode.
The mass spectra were obtained in electrospray positive mode on a Finnigan LCQDeca ion trap instrument previously tuned and calibrated in electrospray mode using Ultramark 1621, caffeine and MRFA (L-metionyl-arginyl-phenilalanyl-arginine).
The mass spectra were obtained in electrospray positive mode on a Finnigan LCQ^Deca ion trap instrument previous tuned and calibrated in electrospray mode using Ultramark 1621, caffeine and MRFA (L-metionyl-arginyl-phenilalanyl-arginine).

S. aureus = assay: Dalbavancin MIC of baseline isolates; format: cell-based; details: All S. aureus
[3] = tested on: Gram-positive pathogen identified at baseline; assay: Phase II SSTI trial: microbiological response; format: in vivo, human; details: for Success rate by pathogen: MITT at FU; for Microbiologic success rate: MITT population; for Eradication/presumed eradication rate, all organisms / S. aureus eradication rate: microbiologically-evaluable population at FU
Protocol: (§1) This randomized, controlled study evaluated the safety and efficacy of two dose regimens of dalbavancin.
(§2) There were 62 patients randomized into the study; all received at least one dose of study medication. Four study populations were evaluated for safety and efficacy and were defined as follows: The intent-to-treat (ITT) population included all patients who received at least one dose of study drug (all randomized study subjects).
Microbiological outcome, a secondary efficacy variable, was assessed in the subpopulation of patients who had microbiologically documented SSTI (i.e., at least one identified baseline pathogen). A microbiologic response was assessed for each Gram-positive pathogen identified at baseline (i.e., eradication, presumed eradication, persistence, presumed persistence). For patients for whom follow-up cultures were not performed, the microbiologic responses for baseline pathogens were presumed on the basis of the clinical response. Microbiologic response by patient at the EOT and FU visits was graded as success (i.e., all Gram-positive organisms eradicated or presumed eradicated) or failure (i.e., at least one Gram-positive organism persisted or presumed to have persisted, multiple pathogens with partial eradication). At both the EOT and FU visits, colonization and superinfection were assessed. At the FU visit, a patient's bacteriological response could also include recurrence.

Rat mass balance study = format: in vivo, Sprague-Dawley rats
Protocol: Mass balance studies were conducted to determine the excretion pattern of dalbavancin following a single intravenous (IV) infusion of dalbavancin in male rats.
Water and methanol cage washes were also collected.

[4] = Pharmacokinetics and renal excretion in healthy subjects; format: in vivo, human
Protocol: Blood samples were drawn into heparinized tubes and centrifuged. Plasma was separated and stored frozen at −20° C. until time of assay. Plasma and urine samples were assayed for dalbavancin using validated LC/MS/MS methods. […] The peak concentration (Cmax) values were obtained directly from the observed data. The area under the plasma concentration-time curve (AUC) was calculated using the linear trapezoidal rule. Clearance (CL) was computed as dose/AUC. The elimination half life (t1/2) was estimated by linear regression of the log-linear portion of the log concentration versus time curve. Estimates of the volume of distribution (Vz) was calculated using the regression parameters, while the volume of distribution at steady state (Vss) was calculated from the area under the first moment curve (AUMC) multiplied by the dose and divided by AUC. The cumulative amount of dalbavancin excreted in urine was determined as the integrand of the urine excretion rate (AURC). CLR, or renal clearance, was calculated as the ratio: CLR=AURC/AUC.

[5] = tested on: skin and soft tissue infections (SSTI); assay: Phase II trial in deep skin and soft tissue infections: clinical response; format: in vivo, human
Protocol: as §1, §2
The effectiveness of the three treatment regimens was determined by assessing the patients' clinical response and the documented or presumed microbiological responses. The primary efficacy endpoint was clinical response at the follow-up visit for the clinically evaluable population. Clinical response, for both EOT and FU visits, was categorized as success (cure or improvement) or failure (including indeterminate results). Patients classified as successes must not have received additional systemic antibacterial treatment for their infection. Failure was defined as persistence of one or more local or systemic signs and symptoms of SSTI such that treatment with new or additional systemic antibacterial agents was required for the SSTI.

[6] = tested on: Miscellaneous Streptococcus and nontypeable strains; assay: Dalbavancin MIC of baseline isolates; format: cell-based
[7] = Phase II SSTI trial: dalbavancin plasma concentrations; format: in vivo, human; details: for Mean dalbavancin plasma concentration: two-dose regimen
HSA = HSA (Homo sapiens, UniProt P02768); assay: MALDI-TOF mass spectrometry of protein-dalbavancin complexes; format: binding; details: very high dalbavancin:protein ratios (1:2, 1:10)
Sequence of HSA (P02768 25-609): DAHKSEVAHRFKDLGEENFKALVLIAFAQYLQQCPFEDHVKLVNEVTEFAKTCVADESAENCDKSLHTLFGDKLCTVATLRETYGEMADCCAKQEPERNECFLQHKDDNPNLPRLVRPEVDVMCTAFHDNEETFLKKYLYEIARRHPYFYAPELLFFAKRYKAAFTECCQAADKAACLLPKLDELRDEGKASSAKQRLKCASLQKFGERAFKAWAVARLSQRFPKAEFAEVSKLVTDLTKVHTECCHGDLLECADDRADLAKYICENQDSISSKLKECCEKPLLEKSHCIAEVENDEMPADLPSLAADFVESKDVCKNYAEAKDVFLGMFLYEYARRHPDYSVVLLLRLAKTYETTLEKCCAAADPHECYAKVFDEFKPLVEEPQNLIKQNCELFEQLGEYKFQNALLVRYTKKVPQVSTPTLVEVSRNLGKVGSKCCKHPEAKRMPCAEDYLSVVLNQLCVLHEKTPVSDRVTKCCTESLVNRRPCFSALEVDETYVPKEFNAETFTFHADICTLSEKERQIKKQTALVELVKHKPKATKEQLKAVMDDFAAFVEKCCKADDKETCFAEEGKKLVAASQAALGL
Protocol: The samples were prepared for analysis using the dried droplet technique. Spectra were obtained on a BRUKER FLEX III, tof mass spectrometer previously tuned and calibrated using standard bovine serum albumin, acquiring and averaging spectra generated by 200 laser shots. Matrix: 9 parts of DHB-9 (2,5-dihydroxy-benzoic acid) saturated in acetonitrile/H2O (50:50), 1 part of sinapinic acid saturated in acetonitrile/H2O (50:50). 0.5 μl of sample solution and 0.5 μl of matrix solution were mixed and placed on the laser target. [00179]

[8] = MITT isolates of standard of care group
[9] = MITT isolates of two-dose group
[10] = MITT isolates of single-dose group

Sequence of human albumin (P02768 25-609): as above

Structure (SMILES): CN[C@H]1C(=O)N[C@@H]2Cc3ccc(cc3)Oc3cc4cc(c3O[C@@H]3O[C@H](C(=O)O)[C@@H](O)[C@H](O)[C@H]3NC(=O)CCCCCCCCC(C)C)Oc3ccc(cc3Cl)[C@@H](O)[C@@H]3NC(=O)[C@H](NC(=O)[C@@H]4NC(=O)[C@@H](NC2=O)c2cc(cc(O)c2Cl)Oc2cc1ccc2O)c1ccc(O)c(c1)-c1c(O[C@H]2O[C@H](CO)[C@@H](O)[C@H](O)[C@@H]2O)cc(O)cc1[C@@H](C(=O)NCCCN(C)C)NC3=O [Dalbavancin]
- Stability in processed plasma samples ([1]; 24 hours at room temperature): stable
- Stability in human plasma, detectable concentration ([1]; three cycles of freeze-thaw, 1.5 and 90 μg/ml): stable
- Dalbavancin MIC (Group B streptococcus; [8]): (0.016) mg/L
- Dalbavancin MIC (Group B streptococcus; [9]): (0.016) mg/L
- binding stoichiometry modeling (drug:protein) (human albumin): two dalbavancin molecules are bound to one molecule of protein
- Calculated percent binding (human albumin; antibiotic 500 μM, human serum albumin 6×10^−4 M): 98.0%
- N (binding stoichiometry, protein to dalbavancin) (human albumin; in all cases (all proteins)): < 1
- Multimers in solution (ESI-MS) [2]: presence of dalbavancin multimers
- population ratio of multimer to monomer vs concentration ([2]; 20, 40, 60, and 80 μg/mL): increases with increasing concentration
- population ratio of multimer to monomer vs ionic strength ([2]; ammonium formate 5, 50, 100 mM, pH 5, increase in buffer concentration): decrease
- population ratio of multimer to monomer vs pH ([2]; pH 2.5 to 5.5): increases with increasing pH
- Dalbavancin MIC (S. aureus; [10]): (0.12) mg/L
- Dalbavancin MIC range (S. aureus; [8]): (0.016-0.25) mg/L
- Dalbavancin MIC (S. aureus; [9]): (0.12) mg/L
- Success rate by pathogen ([3]; All S. aureus, single-dose (1100 mg)): 5/13 (38%)
- Success rate by pathogen ([3]; All S. aureus, two-dose (1000/500 mg)): 9/11 (82%)
- Microbiologic success rate ([3]; EOT, single-dose (1100 mg)): 5/14 (35.7) %
- Microbiologic success rate ([3]; EOT, two-dose (1000/500 mg)): 10/13 (76.9) %
- Microbiologic success rate ([3]; FU, single-dose (1100 mg)): 3/14 (21.4) %
- Microbiologic success rate ([3]; FU, two-dose (1000/500 mg)): 9/13 (69.2) %
- Success rate by pathogen ([3]; Methicillin-sensitive S. aureus, single-dose (1100 mg)): 2/7 (29%)
- Success rate by pathogen ([3]; Methicillin-sensitive S. aureus, two-dose (1000/500 mg)): 5/6 (83%)
- Success rate by pathogen ([3]; Miscellaneous streptococcus species, single-dose (1100 mg)): 2/3 (67%)
- Success rate by pathogen ([3]; Miscellaneous streptococcus species, two-dose (1000/500 mg)): 4/4 (100%)
- Success rate by pathogen ([3]; Total organisms, single-dose (1100 mg)): 7/16 (43.8%)
- Success rate by pathogen ([3]; Total organisms, two-dose (1000/500 mg)): 14/16 (87.5%)
- Eradication/presumed eradication rate, all organisms ([3]; single-dose): 58%
- S. aureus eradication rate ([3]; single-dose): 50%
- Eradication/presumed eradication rate, all organisms ([3]; two-dose): 92%
- S. aureus eradication rate ([3]; two-dose): 90%
- dose remaining in the carcass (Rat mass balance study; 70 days post dose): 4.5%
- plasma t1/2 (Rat mass balance study; rat): approximately 1 week
- share of excreted radioactivity eliminated in feces (Rat mass balance study; single IV 20 mg/kg, male rats): ⅓
- share of excreted radioactivity eliminated in urine (Rat mass balance study; single IV 20 mg/kg, male rats): ⅔
- administered radioactivity eliminated in urine and feces (Rat mass balance study; within the first week): Approximately half
- peak concentration in man ([4]; human, in vivo): ~165 µM
- CLR ([4]; single 1000 mg IV, mean): 0.018 L/h
- VZ ([4]; single 1000 mg IV, mean): 16.0 L
- plasma concentration maintained for at least seven days ([4]; single intravenous infusion of 1000 mg): above 45 mg/l
- Clinical success rate ([5]; MITT at FU, patients with MRSA, single-dose): 50%
- Clinical success rate ([5]; MITT at FU, patients with MRSA, two-dose): 80%
- Clinical success rate ([5]; subanalysis: deep or complicated SSTI at baseline, single-dose): 58.3%
- Clinical success rate ([5]; subanalysis: deep or complicated SSTI at baseline, two-dose): 93.8%
- Dalbavancin MIC [6, 10]: (0.016) mg/L
- Dalbavancin MIC [6, 8]: (0.016) mg/L
- Dalbavancin MIC [6, 9]: (0.016) mg/L
- Mean dalbavancin plasma concentration (mean±SD) ([7]; single-dose regimen, Study day 10): 25.2 ± 4.8 mg/L
- Mean dalbavancin plasma concentration ([7]; Study day 8 (prior to the second dose)): 30.4 ± 8.2 mg/L
- Mean dalbavancin plasma concentration ([7]; Study day 20): 21.2 ± 10.0 mg/L
- Mean dalbavancin plasma concentration ([7]; Study day 34): 9.0 ± 4.4 mg/L
- complex with HSA observed by MALDI-TOF (HSA): 2 molecules of dalbavancin per protein molecule
